According to ChEMBL document CHEMBL1201862, “PubChem BioAssay data set” (2004):
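48-hour exposure; five concentrations; linearly interpolated endpoints. GI50 marks 50% less growth.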 Calls of active or inactive are those of the source. Cut-off read from the data, not from the text of the source: active = GI50 up to about 1.1 µM and inactive = higher.

Key:
Assay in all cases: growth of human tumour cells (NCI), 48 h
[1] = test system: M19-MEL
[2] = test system: DLD-1
[3] = test system: LXFL 529
[4] = test system: DMS-114
[5] = test system: KM-20L2
[6] = test system: BT-549
[7] = test system: T47D
[8] = test system: HOP-18
[9] = test system: RXF 631

Measured: GI50

CCN(CC)CCNC(=O)c1ccccc1Nc1c(Cl)cccc1Cl
inactive: [1] 16.1 µM | [2] 11.7 µM | [3] 16.5 µM | [4] 11.6 µM | [5] 2.92 µM

CCCCCCCCCCCCCCC[C@@H](O)C[N+](C)(C)CCO
active: [6] 0.759 µM
inactive: [7] 6.82 µM

N#CC(C#N)=Cc1cccc(Oc2ccccc2)c1
inactive: [1] 27.5 µM | [2] 22.5 µM | [8] 16.7 µM | [3] 18.5 µM | [4] 26.2 µM | [5] 37.4 µM

C[N+]12CCCCC1C(CN1C(=O)Cc3c4ccccc4c(c4ccccc34)CC1=O)CCC2 (stereo unspecified)
inactive: [6] > 100 µM | [7] > 100 µM

COC1=CC(=O)C2C(C1=O)[C@@H]1c3ccccc3OC[C@H]21 (stereo partly specified)
inactive: [2] > 100 µM | [8] > 100 µM | [3] > 100 µM | [4] > 100 µM | [5] > 100 µM

COc1ccc(-c2nc3ncccn3c2-c2ccc([S+](C)[O-])cc2)cc1 (stereo unspecified)
inactive: [6] > 100 µM

CC1(C)CCCCCCCCCC(C)(CCCO)C1=O (stereo unspecified)
inactive: [6] 17.7 µM | [7] 15.6 µM

NC(Cc1c[nH]c2cc([N+](=O)[O-])ccc12)C(=O)O (stereo unspecified)
inactive: [6] > 100 µM | [7] > 100 µM

CC1=NN(c2ccccc2)C(=O)C1/N=N/c1ccc([As](=O)(O)O)c(O)c1 (stereo unspecified)
inactive: [6] > 100 µM | [7] 60.8 µM

N=C(N)NS(=O)(=O)c1ccc(NCc2c3ccccc3[n+]([O-])c3ccccc23)cc1
inactive: [1] 22.9 µM | [2] 28.2 µM | [8] 8.63 µM | [3] 17.1 µM | [4] 10.4 µM | [5] 30.1 µM

Cc1ccc(-c2cc(O)c3nc4ccccc4n3c2)cc1
inactive: [6] > 100 µM | [7] > 100 µM

N#CC(C(=N/O)/C(=N/O)C(C#N)c1ccc(Cl)cc1)c1ccc(Cl)cc1 (stereo unspecified)
inactive: [1] > 100 µM | [2] > 100 µM | [8] 43.6 µM | [3] 30.4 µM | [4] > 100 µM | [5] > 100 µM

COc1cc2c(cc1OCCCC(=O)Nc1cc(C(=O)Nc3cc(C(=O)NCCCN(C)C)n(C)n3)n(C)n1)N=CC1CCCN1C2=O (stereo unspecified)
inactive: [6] 12.1 µM | [7] 14.2 µM

CCc1ccccc1NC(=O)C1=C(C)NC(C)=C(C(=O)Nc2ccccc2CC)C1c1ccc2c(c1)OCO2
inactive: [1] 40.9 µM | [2] 22.7 µM | [3] 31.3 µM | [4] 22.9 µM | [5] > 10 µM

CC(=O)/C=C/C=C(\C)CC/C=C(\C)CC(C)C
inactive: [7] 14.6 µM

Oc1cccnc1/C=N/OCc1ccccc1
inactive: [1] > 100 µM | [2] > 100 µM | [3] > 100 µM | [4] > 100 µM | [5] > 100 µM

O=C1NC2(CCCCC2)C2=C1CCCCC2
inactive: [1] > 100 µM | [2] > 100 µM | [8] > 100 µM | [3] > 100 µM | [4] > 100 µM

Cc1cccc(C)c1N1C(=O)C2c3[nH]c4ccccc4c3C3CCC(C(C)(C)C)CC3C2C1=O (stereo unspecified)
inactive: [6] 20 µM

C/C(=N\NC(=S)N1CCN(c2ccccn2)CC1)c1ccccn1
active: [1] 1.01 µM | [6] 0.01 µM | [2] 0.000509 µM | [3] 0.000342 µM | [7] 0.107 µM | [4] 0.0001 µM | [5] 0.000413 µM

Cc1ccc(S(=O)(=O)NC2CCCCO2)cc1 (stereo unspecified)
inactive: [1] > 100 µM | [2] > 100 µM | [8] > 100 µM | [3] > 100 µM | [4] > 100 µM | [5] > 100 µM

CC(/C=N/N(C)C1=NCCCN1)=N/N(C)C1=NCCCN1
inactive: [6] > 100 µM | [7] > 100 µM

O=C1C(C(c2ccc([N+](=O)[O-])cc2)N2CCOCC2)=C(O)C(c2ccccc2)N1c1ccccc1 (stereo unspecified)
inactive: [6] > 10 µM | [7] > 10 µM

O=C(NC1CCC[C@H]1OC(=O)c1ccccc1)c1ccccc1 (stereo partly specified)
inactive: [1] > 100 µM | [2] 24.4 µM | [9] 66.8 µM | [4] > 10 µM | [5] > 10 µM

Cc1ccc(C)c(NC(=O)c2cccc([N+](=O)[O-])c2O)c1
inactive: [1] 24.7 µM | [2] 27.8 µM | [8] 5.7 µM | [3] 35.5 µM | [4] 15.1 µM | [5] 24.6 µM

CN(C)Cc1cc(C(=O)/C=C/c2ccc(Cl)c(Cl)c2)cc(CN(C)C)c1O
inactive: [7] 4.41 µM

C=C1C(=O)[C@]23C[C@H]1C[C@@H](O)[C@H]2[C@]1(COC3=O)[C@@H](OC(C)=O)CC[C@@](C)(COC(C)=O)[C@H]1C=O [LOXOTHYRIN A]
inactive: [6] 23.7 µM | [7] 11.7 µM
